In the SangsterLogP compilation:

Tests used:
[1] = method code SF-AS, from DOI: 10.1584/jpestics.13.587

Structure (SMILES) | logP [1] | logP
C#CC(C)OC(=O)Nc1ccc(OCC)c(OCC)c1 (stereo unspecified) | 2.68 | –
CCOc1ccc(NC(=O)OC(C)COC)cc1OCC (stereo unspecified) | – | 2.56
CCOc1ccc(NC(=O)OC(C)(C)C)cc1OCC | – | 3.17
CCOc1ccc(NC(=O)OC(C)c2ccccc2)cc1OCC (stereo unspecified) | – | 3.56
CCOc1ccc(NC(=O)OCCBr)cc1OCC | – | 2.78
C=CC(CC)OC(=O)Nc1ccc(OCC)c(OCC)c1 (stereo unspecified) | – | 3.42
CCOc1ccc(NC(=O)OC(C)C(Cl)(Cl)Cl)cc1OCC (stereo unspecified) | – | 3.96
C#CCC(C)OC(=O)Nc1ccc(OCC)c(OCC)c1 (stereo unspecified) | – | 2.86
CCOc1ccc(NC(=O)OCCF)cc1OCC | – | 2.27
CCCCCCC(C)OC(=O)Nc1ccc(OCC)c(OCC)c1 (stereo unspecified) | – | 5.06
CCOc1ccc(NC(=O)OC(C)CF)cc1OCC (stereo unspecified) | – | 2.59

Other lines, results leading:

logP [1] | logP | Structure (SMILES)
– | 2.97 | CCOc1ccc(NC(=O)OC(C)CCl)cc1OCC (stereo unspecified)
– | 3.07 | C#CC(CC)OC(=O)Nc1ccc(OCC)c(OCC)c1 (stereo unspecified)
– | 2.62 | CCOc1ccc(NC(=O)OCCCl)cc1OCC
– | 2.54 | C#CCCOC(=O)Nc1ccc(OCC)c(OCC)c1
– | 3.37 | C=CCC(C)OC(=O)Nc1ccc(OCC)c(OCC)c1 (stereo unspecified)
